Experimental data: PubChem BioAssay (NCI)
“And” between values parts separate entries of the source, which are not always exact repeats. Equal entries are not always repeated.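 Each compound was tested at five concentrations against cells in 96-well plates for 48 hours. TGI: total growth inhibition.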

Columns and labels:
Test in all cases: NCI-60 cell line screen, 48 h
786-0 renal = test system: 786-0 renal
A498 renal = test system: A498 renal
A549 NSCLC = test system: A549 NSCLC
HCC-2998 colon = test system: HCC-2998 colon
HCT-116 colon = test system: HCT-116 colon
HCT-15 colon = test system: HCT-15 colon
HOP-62 NSCLC = test system: HOP-62 NSCLC
MDA-MB-231 breast = test system: MDA-MB-231 breast
MDA-N = test system: MDA-N
MOLT-4 leukemia = test system: MOLT-4 leukemia
NCI-H460 lung = test system: NCI-H460 lung
NCI/ADR-RES ovarian = test system: NCI/ADR-RES ovarian
OVCAR-5 ovarian = test system: OVCAR-5 ovarian
SF-268 CNS = test system: SF-268 CNS
SF-295 CNS = test system: SF-295 CNS
SK-MEL-2 melanoma = test system: SK-MEL-2 melanoma
SNB-75 CNS = test system: SNB-75 CNS
SW-620 colon = test system: SW-620 colon

SMILES	TGI (786-0 renal)	TGI (A498 renal)	TGI (A549 NSCLC)	TGI (HCC-2998 colon)	TGI (HCT-116 colon)	TGI (HCT-15 colon)	TGI (HOP-62 NSCLC)	TGI (MDA-MB-231 breast)	TGI (MDA-N)	TGI (MOLT-4 leukemia)	TGI (NCI-H460 lung)	TGI (NCI/ADR-RES ovarian)	TGI (OVCAR-5 ovarian)	TGI (SF-268 CNS)	TGI (SF-295 CNS)	TGI (SK-MEL-2 melanoma)	TGI (SNB-75 CNS)	TGI (SW-620 colon)
CN(C)C(c1ccccc1)C1COC2Cc3ccccc3C1O2 (configuration not stated)	> 100 µM	> 100 µM	> 100 µM	> 100 µM	> 100 µM	> 100 µM	> 100 µM	> 100 µM	> 100 µM	> 100 µM	> 100 µM	> 100 µM	> 100 µM	> 100 µM	> 100 µM	> 100 µM	89 µM and 89.4 µM	–
O=C(Nc1ccc2[nH]c(C(=O)N3CC(CCl)c4c3cc([N+](=O)[O-])c3ccccc43)cc2c1)Nc1ccc2[nH]c(C(=O)N3CC(CCl)c4c3cc([N+](=O)[O-])c3ccccc43)cc2c1 (configuration not stated)	> 100 µM	> 100 µM	> 100 µM	–	> 100 µM	> 100 µM	> 100 µM	> 100 µM	> 100 µM	–	> 100 µM	> 100 µM	> 100 µM	> 100 µM	> 100 µM	> 100 µM	> 100 µM	–
CC(=O)Nc1c(C)cc2c(nc3n2CCC3OC(C)=O)c1[N+](=O)[O-] (configuration not stated)	> 100 µM	> 100 µM	> 100 µM	–	> 100 µM	> 100 µM	–	> 100 µM	> 100 µM	> 100 µM	> 100 µM	> 100 µM	> 100 µM	> 100 µM	> 100 µM	> 100 µM	> 100 µM	> 100 µM
O=C(CN1CCOCC1)c1ccc2c(c1)oc(=O)n2CCN1CCOCC1	> 100 µM	> 100 µM	–	–	> 100 µM	–	> 100 µM	> 100 µM	> 100 µM	> 100 µM	–	> 100 µM	> 100 µM	> 100 µM	> 100 µM	> 100 µM	> 100 µM	> 100 µM
CC(C)=CCC/C(C)=C/CC/C(C)=C/CC/C(C)=C/CC/C(C)=C/CC/C(C)=C/CC/C(C)=C/CC/C(C)=C/CC/C(C)=C/CO	> 100 µM	> 100 µM	> 100 µM	> 100 µM	> 100 µM	> 100 µM	> 100 µM	> 100 µM	> 100 µM	> 100 µM	> 100 µM	–	> 100 µM	> 100 µM	> 100 µM	> 100 µM	> 100 µM	> 100 µM
S=C1CCSc2c(ccc3ccccc23)N1	> 100 µM	–	> 100 µM	–	> 100 µM	> 100 µM	> 100 µM	> 100 µM	> 100 µM	> 100 µM	> 100 µM	> 100 µM	> 100 µM	> 100 µM	> 100 µM	–	> 100 µM	–
C/C(CC(O)(/C=N/O)c1ccccc1)=N/O (configuration not stated)	> 100 µM	–	> 100 µM	> 100 µM	> 100 µM	> 100 µM	> 100 µM	> 100 µM	> 100 µM	> 100 µM	> 100 µM	> 100 µM	> 100 µM	> 100 µM	> 100 µM	> 100 µM	–	> 100 µM
Cc1ccc(/C(O)=C/C(=O)C(=O)NC23CC4CC(CC(C4)C2)C3)cc1	> 10 µM	–	> 10 µM	> 10 µM	–	> 10 µM	> 10 µM	> 10 µM	> 10 µM	> 10 µM	–	–	–	> 10 µM	> 10 µM	–	> 10 µM	> 10 µM
COc1cc(-c2cc(=O)c3c(O)c(CC=C(C)C)c(O)cc3o2)ccc1O	–	> 50 µM	> 50 µM	–	> 50 µM	> 50 µM	> 50 µM	> 50 µM	20.2 µM	> 50 µM	> 50 µM	> 50 µM	> 50 µM	> 50 µM	31.2 µM	> 50 µM	–	> 50 µM
Cn1c(=O)c2c(nc3n2CCCC(=O)N3CC(O)CCl)n(C)c1=O (configuration not stated)	> 100 µM	> 100 µM	> 100 µM	> 100 µM	> 100 µM	> 100 µM	> 100 µM	–	> 100 µM	> 100 µM	> 100 µM	> 100 µM	> 100 µM	> 100 µM	> 100 µM	> 100 µM	> 100 µM	> 100 µM
COC1CN(C)C(=Nc2cccc3ccccc23)S1 (configuration not stated)	> 10 µM	–	> 10 µM	> 10 µM	> 10 µM	> 10 µM	> 10 µM	> 10 µM	> 10 µM	> 10 µM	–	> 10 µM	> 10 µM	> 10 µM	> 10 µM	–	> 10 µM	> 10 µM
CC1SCc2nc3ccccc3n21 (configuration not stated)	> 100 µM	> 100 µM	> 100 µM	> 100 µM	> 100 µM	> 100 µM	> 100 µM	> 100 µM	> 100 µM	> 100 µM	> 100 µM	> 100 µM	> 100 µM	> 100 µM	> 100 µM	> 100 µM	83.3 µM	–
O=c1[nH]nc(Cc2c[nH]c3ccccc23)o1	> 100 µM	> 100 µM	> 100 µM	> 100 µM	> 100 µM	> 100 µM	> 100 µM	> 100 µM	> 100 µM	> 100 µM	–	> 100 µM	> 100 µM	> 100 µM	> 100 µM	> 100 µM	–	> 100 µM
NC(=O)Cc1nc2c(N)ncnc2n1C1OC(CO)C(O)C1O (configuration not stated)	> 100 µM	> 100 µM	> 100 µM	> 100 µM	> 100 µM	> 100 µM	> 100 µM	> 100 µM	> 100 µM	> 100 µM	> 100 µM	> 100 µM	–	> 100 µM	> 100 µM	> 100 µM	–	> 100 µM
